Laboratory results taken from BindingDB's records for doi:10.1016/j.ejmech.2018.03.040 (University of Torino, 2018).

target: Prostaglandin G/H synthase 2 (COX2, PTGS2) (Homo sapiens) (UniProt P35354); test: Inhibition of human COX2 assessed as reduction in PGF2alpha production by ELISA
Sequence (P35354 whole entry, looked up): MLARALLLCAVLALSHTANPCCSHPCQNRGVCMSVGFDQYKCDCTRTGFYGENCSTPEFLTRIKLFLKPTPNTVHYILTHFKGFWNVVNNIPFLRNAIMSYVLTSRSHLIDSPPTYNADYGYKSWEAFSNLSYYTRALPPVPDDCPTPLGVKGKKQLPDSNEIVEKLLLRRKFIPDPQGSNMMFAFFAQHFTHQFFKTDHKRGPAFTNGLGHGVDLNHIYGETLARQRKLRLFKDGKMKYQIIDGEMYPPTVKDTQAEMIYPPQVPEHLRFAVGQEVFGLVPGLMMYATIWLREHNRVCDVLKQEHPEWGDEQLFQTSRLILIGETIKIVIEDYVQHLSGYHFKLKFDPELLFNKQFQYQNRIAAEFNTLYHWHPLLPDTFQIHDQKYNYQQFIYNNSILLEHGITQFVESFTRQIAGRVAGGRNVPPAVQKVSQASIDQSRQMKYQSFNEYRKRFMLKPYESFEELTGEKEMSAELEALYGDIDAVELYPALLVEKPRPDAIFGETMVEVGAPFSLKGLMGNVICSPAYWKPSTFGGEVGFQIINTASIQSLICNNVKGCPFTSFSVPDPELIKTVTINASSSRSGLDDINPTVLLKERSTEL

IC50, > 100 µM:
COc1ccc(Cn2nnc(O)c2C(=O)Nc2cccc(C(F)(F)F)c2)cc1OC, O=C(Nc1cccc(C(F)(F)F)c1)c1c(O)nnn1Cc1ccc(OC(F)(F)F)cc1, O=[N+]([O-])c1cccc(Nc2cccc3onc(O)c23)c1, Oc1noc2cccc(Nc3cccc(S(F)(F)(F)(F)F)c3)c12, Oc1noc2cccc(Nc3cc(C(F)(F)F)cc(C(F)(F)F)c3)c12, Oc1noc2ccc(Nc3cccc(C(F)(F)F)c3)cc12, Oc1noc2cccc(Nc3cccc(C(F)(F)F)c3)c12
